The source made the active and inactive calls. The calls are words filed in the database; no cut-off is given here.
Tested on: B-CLL
Experiment: Inhibition of spliceosome-mediated splicing of DNAJB1 gene in human B-CLL cells at 10 uM after 4 hrs by RT-PCR analysis
Format: cell-based

In the case of `Nc1nc(F)nc2c1ncn2[C@@H]1O[C@H](CO)[C@@H](O)[C@@H]1O`, the Activity is reported as “inactive”.

Tested on: B-CLL
Experiment: Inhibition of spliceosome-mediated splicing of DNAJB1 gene in human B-CLL cells at 0.1 to 1.0 uM after 4 hrs by RT-PCR analysis
Format: cell-based

For `CC[C@H](OC)[C@@H](C)[C@H]1C[C@@H]1[C@@H](O)[C@H](C)/C=C/C=C(\C)[C@H]1OC(=O)C[C@H](O)CC[C@@](C)(O)[C@@H](OC(C)=O)/C=C/[C@@H]1C`, the Activity was “Active”.

Tested on: B-CLL
Experiment: Inhibition of spliceosome-mediated splicing of DNAJB1 gene in human B-CLL cells at 0.1 uM after 4 hrs by RT-PCR analysis
Format: cell-based

With `CC[C@H](OC)[C@@H](C)[C@H]1C[C@@H]1[C@@H](O)[C@H](C)/C=C/C=C(\C)[C@H]1OC(=O)C[C@H](O)CC[C@@](C)(O)[C@@H](OC(C)=O)/C=C/[C@@H]1C` the Activity was “Active”.
In the case of `CC[C@H](O)[C@@H](C)[C@H]1O[C@@H]1C[C@H](C)/C=C/C=C(\C)[C@H]1OC(=O)C[C@H](O)CC[C@@](C)(O)[C@@H](OC(C)=O)CC[C@@H]1C` [PLADIENOLIDE B], the Activity is reported as “Active”.
In the case of `CC[C@H](OC)[C@@H](C)[C@H]1O[C@@H]1[C@H](O)[C@H](C)/C=C/C=C(\C)[C@H]1OC(=O)C[C@H](O)CC[C@@](C)(O)[C@@H](OC(C)=O)/C=C/[C@@H]1C`, the Activity is reported as “Active”.

Tested on: not listed separately
Experiment: Induction of apoptosis in human CLL cells by 3,3'-dihexyloxacarbocyanine iodide staining-based flow cytometry
Format: functional, cell-based

First: CC[C@H](OC)[C@@H](C)[C@H]1O[C@@H]1[C@H](O)[C@@H](C)/C=C/C=C(\C)[C@H]1OC(=O)C[C@H](O)CC[C@@](C)(O)[C@@H](OC(C)=O)/C=C/[C@@H]1C
Second: CC[C@H](OC)[C@@H](C)[C@H]1O[C@@H]1[C@@H](O)[C@@H](C)/C=C/C=C(\C)[C@H]1OC(=O)C[C@H](O)CC[C@@](C)(O)[C@@H](OC(C)=O)/C=C/[C@@H]1C
The IC50 of the first is lower: 0.109 µM for the first, > 50 µM for the second. The first is the more potent here.

Compared with `CC[C@H](OC)[C@@H](C)[C@H]1C[C@@H]1[C@@H](O)[C@H](C)/C=C/C=C(\C)[C@H]1OC(=O)C[C@H](O)CC[C@@](C)(O)[C@@H](OC(C)=O)/C=C/[C@@H]1C`, `CC[C@H](OC)[C@@H](C)[C@H]1O[C@@H]1[C@H](O)[C@H](C)/C=C/C=C(\C)[C@H]1OC(=O)C[C@H](O)CC[C@@](C)(O)[C@@H](OC(C)=O)/C=C/[C@@H]1C` is 49-fold lower in IC50: 0.103 µM for the first, 0.0021 µM for the second.

With `CC[C@H](O)[C@@H](C)[C@H]1O[C@@H]1C[C@H](C)/C=C/C=C(\C)[C@H]1OC(=O)C[C@H](O)CC[C@@](C)(O)[C@@H](OC(C)=O)CC[C@@H]1C` [PLADIENOLIDE B] the IC50 was 0.0305 µM.

Tested on: HCT-116
Experiment: Cytotoxicity against human HCT116 cells by MTT assay
Format: functional, cell-based

`CC[C@H](OC)[C@@H](C)[C@H]1O[C@@H]1[C@@H](O)[C@H](C)/C=C/C=C(\C)[C@H]1OC(=O)C[C@H](O)CCCC/C=C/[C@@H]1C` and `CC[C@H](OC)[C@@H](C)[C@H]1O[C@@H]1[C@@H](O)[C@H](C)/C=C/C=C(\C)[C@H]1OC(=O)CCCCCC/C=C/[C@@H]1C` cannot be ordered by IC50: > 50 µM for the first, > 50 µM for the second.

Compared with `CC[C@H](OC)[C@@H](C)[C@H]1C[C@@H]1[C@@H](O)[C@@H](C)/C=C/C=C(\C)[C@H]1OC(=O)C[C@H](O)CC[C@@](C)(O)[C@@H](OC(C)=O)/C=C/[C@@H]1C`, `CC[C@H](OC)[C@@H](C)[C@H]1C[C@@H]1[C@@H](O)[C@H](C)/C=C/C=C(\C)[C@H]1OC(=O)C[C@H](O)CC[C@@](C)(O)[C@@H](OC(C)=O)/C=C/[C@@H]1C` is 1.9-fold lower in IC50: 0.0823 µM for the first, 0.0429 µM for the second. The second is the more potent here.

First: CC[C@H](OC)[C@@H](C)[C@H]1O[C@@H]1[C@H](OC(C)=O)[C@H](C)/C=C/C=C(\C)[C@H]1OC(=O)C[C@H](OC(C)=O)CC[C@@](C)(O)[C@@H](OC(C)=O)/C=C/[C@@H]1C
Second: CC[C@H](OC)[C@@H](C)[C@H]1O[C@@H]1[C@H](OC(C)=O)[C@H](C)/C=C/C=C(\C)[C@H]1OC(=O)C[C@H](O)CC[C@@](C)(O)[C@@H](OC(C)=O)/C=C/[C@@H]1C
The IC50 of the first is 3.8-fold higher: 0.542 µM for the first, 0.142 µM for the second. The second is the more potent here.

Going from `CC[C@H](OC)[C@@H](C)[C@H]1O[C@@H]1[C@H](O)[C@@H](C)/C=C/C=C(\C)[C@H]1OC(=O)C[C@H](O)CC[C@@](C)(O)[C@@H](OC(C)=O)/C=C/[C@@H]1C` to `CC[C@H](OC)[C@@H](C)[C@H]1O[C@@H]1[C@@H](O)[C@@H](C)/C=C/C=C(\C)[C@H]1OC(=O)C[C@H](O)CC[C@@](C)(O)[C@@H](OC(C)=O)/C=C/[C@@H]1C`, the IC50 rises from 0.0037 µM to 0.023 µM (6.2-fold).

`CC[C@H](O)[C@@H](C)[C@H]1O[C@@H]1C[C@H](C)/C=C/C=C(\C)[C@H]1OC(=O)CCCCCC/C=C/[C@H]1C` and `CC[C@H](O)[C@@H](C)[C@H]1O[C@@H]1C[C@H](C)/C=C/C=C(\C)[C@H]1OC(=O)CCCCCC/C=C/[C@@H]1C` cannot be ordered by IC50: > 50 µM for the first, > 50 µM for the second.

First: CC[C@H](OC)[C@@H](C)[C@H]1O[C@@H]1[C@@H](O)[C@H](C)/C=C/C=C(\C)[C@H]1OC(=O)C[C@H](O)CC[C@@](C)(O)[C@@H](OC(C)=O)/C=C/[C@@H]1C
Second: CC[C@H](OC)[C@@H](C)[C@H]1O[C@@H]1[C@H](O)[C@H](C)/C=C/C=C(\C)[C@H]1OC(=O)C[C@H](O)CC[C@@](C)(O)[C@@H](OC(C)=O)/C=C/[C@@H]1C
The IC50 of the first is 29-fold lower: 0.0008 µM for the first, 0.0235 µM for the second. The first is the more potent here.

With `CC[C@H](O)[C@@H](C)[C@H]1O[C@@H]1C[C@H](C)/C=C/C=C(\C)[C@H]1OC(=O)C[C@H](O)CC[C@@](C)(O)[C@@H](OC(C)=O)CC[C@@H]1C` [PLADIENOLIDE B] the IC50 was 0.0248 µM.

— ChEMBL document CHEMBL2417526, “Stabilized cyclopropane analogs of the splicing inhibitor FD-895” (J Med Chem, 2013)
